Data set [1] deals with Trypanosoma brucei brucei. In words: Antitrypanosomal activity against Trypanosoma brucei brucei Lister 427 VSG 221 [TetR T7RNAP] transgenic bloodstream forms assessed as reduction in cell viability after 48 hrs by alamar blue assay. The class given is functional. Conditions: Lister 427 VSG 221, 48 h. (In general: The colour change of resazurin is a common sign of viable cells or microbes.)

Data set [2] addresses T1, E. coli GroEL/ES (Escherichia coli, UniProt P0A6F5). As to the kind of experiment: Inhibition of Escherichia coli GroEL/GroES expressed in Escherichia coli DH5alpha/BL21 (DE3) assessed as inhibition of denatured MDH refolding preincubated for 10 mins followed by ATP addition measured after 20 to 40 mins by fluorescence based assay.
Data set [3] has as its target T2, HSP60/HSP10 (Homo sapiens, UniProt P10809). As to the kind of experiment: Inhibition of human mitochondrial HSP60/HSP10 expressed in Escherichia coli DH5alpha/BL21 (DE3) assessed as inhibition of denatured MDH refolding preincubated for 10 mins followed by ATP addition measured after 40 to 60 mins by fluorescence based assay.
Data set [4] addresses T1, E. coli GroEL/ES. In words: Inhibition of Escherichia coli GroEL/GroES-ATPase activity expressed in Escherichia coli DH5alpha/BL21 (DE3) assessed as inhibition of denatured MDH refolding preincubated for 10 mins followed by ATP addition measured after 20 to 40 mins by malachite green dye based fluorescence assay.
Data set [5] concerns the target T2, HSP60/HSP10. In words: Inhibition of human mitochondrial HSP60/HSP10-ATPase activity expressed in Escherichia coli DH5alpha/BL21 (DE3) assessed as inhibition of denatured MDH refolding preincubated for 10 mins followed by ATP addition measured after 40 to 60 mins by malachite green dye based fluorescence assay.
The nature of data set [6]: Cytotoxicity against human THLE3 cells assessed as reduction in cell viability after 48 hrs by alamar blue assay. It counts as toxicity, cell-based.
Data set [7] is described as follows: Cytotoxicity against HEK293 cells assessed as reduction in cell viability after 48 hrs by alamar blue assay. It counts as toxicity, cell-based. As to conditions: human.
The nature of data set [8]: Inhibition of pig heart native MDH reporter reaction after 20 to 40 mins by fluorescence based assay. More on the design: species or system Sus scrofa.

The term EC50 denotes the concentration at which the effect is half-maximal. By IC50 is commonly meant the midpoint of a concentration-inhibition curve.

Each structure is given as a SMILES string. A value given as a limit tells only on which side of the number the result lay.

T2 sequence (P10809 whole entry): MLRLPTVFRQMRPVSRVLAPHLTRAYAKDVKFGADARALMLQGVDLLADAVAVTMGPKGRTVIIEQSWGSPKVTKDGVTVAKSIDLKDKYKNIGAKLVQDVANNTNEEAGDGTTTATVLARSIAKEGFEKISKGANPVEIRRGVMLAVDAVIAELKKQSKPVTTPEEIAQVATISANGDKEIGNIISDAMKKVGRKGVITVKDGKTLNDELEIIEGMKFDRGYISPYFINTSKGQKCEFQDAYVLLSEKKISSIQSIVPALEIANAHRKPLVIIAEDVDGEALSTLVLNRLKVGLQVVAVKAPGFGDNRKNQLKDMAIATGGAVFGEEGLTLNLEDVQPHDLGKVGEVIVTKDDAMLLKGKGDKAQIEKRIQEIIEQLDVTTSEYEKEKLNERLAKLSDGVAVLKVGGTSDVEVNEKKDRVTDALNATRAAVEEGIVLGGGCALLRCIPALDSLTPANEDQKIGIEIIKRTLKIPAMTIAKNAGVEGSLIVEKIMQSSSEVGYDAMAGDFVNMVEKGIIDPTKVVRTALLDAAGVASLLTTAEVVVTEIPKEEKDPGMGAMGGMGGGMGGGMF
T2 sequence (P61604 whole entry, further chain): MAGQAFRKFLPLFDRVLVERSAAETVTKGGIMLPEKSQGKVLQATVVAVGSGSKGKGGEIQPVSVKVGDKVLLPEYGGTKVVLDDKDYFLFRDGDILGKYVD
T1 sequence (P0A6F5 whole entry, looked up): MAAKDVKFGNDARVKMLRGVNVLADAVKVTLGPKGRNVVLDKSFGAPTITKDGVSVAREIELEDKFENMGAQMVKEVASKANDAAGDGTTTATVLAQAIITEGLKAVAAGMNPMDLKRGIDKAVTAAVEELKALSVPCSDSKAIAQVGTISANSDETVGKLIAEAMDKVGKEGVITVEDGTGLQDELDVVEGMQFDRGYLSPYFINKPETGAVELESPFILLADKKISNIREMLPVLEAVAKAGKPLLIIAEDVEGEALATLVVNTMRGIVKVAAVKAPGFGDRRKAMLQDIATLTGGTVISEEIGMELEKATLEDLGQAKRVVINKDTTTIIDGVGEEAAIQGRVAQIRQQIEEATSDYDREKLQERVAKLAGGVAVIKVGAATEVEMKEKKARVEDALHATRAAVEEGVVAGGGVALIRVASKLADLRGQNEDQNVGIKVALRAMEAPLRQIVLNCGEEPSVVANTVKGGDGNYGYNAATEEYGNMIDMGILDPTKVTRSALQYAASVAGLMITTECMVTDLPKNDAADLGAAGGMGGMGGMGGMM

Consider `O=S(=O)(Nc1ccc(-c2nc3cc(NS(=O)(=O)c4ccccc4C(F)(F)F)ccc3o2)cc1)c1ccccc1C(F)(F)F`, for which, in data set [1], the half-maximal effective concentration (EC50) is 28 µM. Moreover, the 50% inhibitory concentration (IC50) on E. coli GroEL/ES [2] is 25 µM; on HSP60/HSP10 [3] it was above 100 µM; at E. coli GroEL/ES [4] it was 21 µM; at HSP60/HSP10 [5], above 250 µM; in data set [8], above 63 µM. For the same molecule, the values for the concentration giving a half-maximal response (EC50) at 48 h in data set [6] and in data set [7] were 50 µM and 66 µM, respectively.
For the molecule `N=C(N)c1ccc(OCCCCCOc2ccc(C(=N)N)cc2)cc1` [PENTAMIDINE], the 50% effective concentration (EC50) in data set [1] is below 0.019 µM. For the same molecule, the IC50 at E. coli GroEL/ES [2] is above 100 µM; on HSP60/HSP10 [3], above 100 µM; on E. coli GroEL/ES [4] it was above 250 µM; at HSP60/HSP10 [5] it was above 250 µM; in data set [8] it was above 63 µM. Besides, the EC50 at 48 h in data set [6] is 19 µM; in data set [7] it was above 100 µM.
On to `Cc1cccc(S(=O)(=O)Nc2ccc(-c3nc4cc(NS(=O)(=O)c5cccc(C)c5)ccc4o3)cc2)c1`, for which the EC50 in data set [1] was 4.9 µM. The IC50 at E. coli GroEL/ES [2] was 35 µM; at HSP60/HSP10 [3], above 100 µM; on E. coli GroEL/ES [4] it was above 250 µM; on HSP60/HSP10 [5], above 250 µM; in data set [8], above 63 µM. The values for the half-maximal effective concentration (EC50) at 48 h in data set [6] and in data set [7] were 18 µM and 65 µM, respectively.
On to `O=C(O)c1ccccc1S(=O)(=O)Nc1ccc(-c2nc3cc(NS(=O)(=O)c4ccccc4C(=O)O)ccc3o2)cc1`, for which the 50% effective concentration (EC50) in data set [1] was above 42 µM. The half-inhibitory concentration (IC50) is above 100 µM at E. coli GroEL/ES [2]; above 100 µM at HSP60/HSP10 [3]; above 250 µM on E. coli GroEL/ES [4]; above 250 µM on HSP60/HSP10 [5]; above 63 µM in data set [8]. In addition, the EC50 at 48 h in data set [6] and in data set [7] was above 100 µM throughout.
As to `Nc1cccc(S(=O)(=O)Nc2ccc(-c3nc4cc(NS(=O)(=O)c5cccc(N)c5)ccc4o3)cc2)c1`, in data set [1], the EC50 stood at 15 µM. Besides, the IC50 at E. coli GroEL/ES [2] was 2.8 µM; at HSP60/HSP10 [3] it was 87 µM; at E. coli GroEL/ES [4], 9.6 µM; on HSP60/HSP10 [5], 127 µM; in data set [8], above 63 µM. Further, the half-maximal effective concentration (EC50) at 48 h in data set [6] turned out to be 30 µM; in data set [7], 58 µM.
On to `O=C(O)c1cccc(S(=O)(=O)Nc2ccc(-c3nc4cc(NS(=O)(=O)c5cccc(C(=O)O)c5)ccc4o3)cc2)c1`, for which the half-maximal effective concentration (EC50) in data set [1] was above 42 µM. Moreover, the IC50 on E. coli GroEL/ES [2] is 61 µM; at HSP60/HSP10 [3], 81 µM; at E. coli GroEL/ES [4], above 250 µM; at HSP60/HSP10 [5], above 250 µM; in data set [8], 41 µM. The concentration for a half-maximal effect (EC50) at 48 h in data set [6] and in data set [7] was above 100 µM in each case.
`O=S(=O)(Nc1ccc(-c2nc3cc(NS(=O)(=O)c4cccc(O)c4)ccc3o2)cc1)c1cccc(O)c1`: the EC50 in data set [1] amounted to 8.9 µM. Further, the concentration for half-maximal inhibition (IC50) was 0.9 µM at E. coli GroEL/ES [2]; 19 µM on HSP60/HSP10 [3]; 0.79 µM at E. coli GroEL/ES [4]; 61 µM at HSP60/HSP10 [5]; 47 µM in data set [8]. The EC50 at 48 h in data set [6] was determined as 37 µM; in data set [7], 36 µM.
For `O=S(=O)(Cc1ccccc1)Nc1ccc(-c2nc3cc(NS(=O)(=O)Cc4ccccc4)ccc3o2)cc1`, the EC50 in data set [1] was found to be 13 µM. For the same molecule, the IC50 at E. coli GroEL/ES [2] is 55 µM; at HSP60/HSP10 [3], above 100 µM; on E. coli GroEL/ES [4], 208 µM; on HSP60/HSP10 [5], above 250 µM; in data set [8] it was above 63 µM. In addition, the concentration for a half-maximal effect (EC50) at 48 h in data set [6] came out at 29 µM; in data set [7], 19 µM.
As for `O=S(=O)(Nc1ccc(-c2nc3cc(NS(=O)(=O)c4ccc(C(F)(F)F)cc4)ccc3o2)cc1)c1ccc(C(F)(F)F)cc1`, the EC50 in data set [1] was 4.1 µM. For the same molecule, the IC50 is 35 µM on E. coli GroEL/ES [2]; 61 µM at HSP60/HSP10 [3]; above 250 µM on E. coli GroEL/ES [4]; above 250 µM on HSP60/HSP10 [5]; above 63 µM in data set [8]. In addition, the results for the half-maximal effective concentration (EC50) at 48 h in data set [6] and in data set [7] were 21 µM and above 100 µM, respectively.
As to `O=S(=O)(Nc1ccc(-c2nc3cc(NS(=O)(=O)c4cccc5ccccc45)ccc3o2)cc1)c1cccc2ccccc12`, the EC50 in data set [1] was found to be 2.1 µM. The 50% inhibitory concentration (IC50) was 23 µM on E. coli GroEL/ES [2]; above 100 µM on HSP60/HSP10 [3]; 54 µM on E. coli GroEL/ES [4]; 144 µM on HSP60/HSP10 [5]; above 63 µM in data set [8]. Besides, the figures for the EC50 at 48 h in data set [6] and in data set [7] were 69 µM and above 100 µM, respectively.
Consider `O=S(=O)(Nc1ccc(-c2nc3cc(NS(=O)(=O)c4ccccc4Br)ccc3o2)cc1)c1ccccc1Br`, for which, in data set [1], the concentration for a half-maximal effect (EC50) was 28 µM. Also, the 50% inhibitory concentration (IC50) on E. coli GroEL/ES [2] is 63 µM; on HSP60/HSP10 [3] it was above 100 µM; on E. coli GroEL/ES [4], 144 µM; on HSP60/HSP10 [5] it was above 250 µM; in data set [8] it was above 63 µM. Besides, the half-maximal effective concentration (EC50) at 48 h in data set [6] turned out to be 37 µM; in data set [7], 28 µM.
As to `N#Cc1ccccc1S(=O)(=O)Nc1ccc(-c2nc3cc(NS(=O)(=O)c4ccccc4C#N)ccc3o2)cc1`, in data set [1], the EC50 was 23 µM. The IC50 was 32 µM at E. coli GroEL/ES [2]; 86 µM on HSP60/HSP10 [3]; above 250 µM on E. coli GroEL/ES [4]; 193 µM at HSP60/HSP10 [5]; above 63 µM in data set [8]. The figures for the concentration giving a half-maximal response (EC50) at 48 h in data set [6] and in data set [7] were 93 µM and 74 µM, respectively.
